Key:
[1] = Metabolic stability in human liver microsomes; format: in vitro ADME; details: for half-life: 0.5 mg protein/mL; for microsomal CLint: read-out: CLint(mic)
Excerpt: (§1) According to standard methods for investigating in vitro metabolic stability in the art, e.g., the methods described in Kerns, Edward H. and Di Li (2008). Drug-like Properties: Concepts, Structure Design and Methods: from ADME to Toxicity Optimisation. San Diego: Academic Press; Di, Li et al., Optimisation of a Higher Throughput Microsomal Stability Screening Assay for Profiling Drug Discovery Candidates, J. Biomol. Screen. 2003, 8(4), 453, the liver microsomal metabolic stability test of the compounds of the present disclosure was carried out analogously as follows. The incubation system comprising 0.5 mg protein/mL microsomes, cofactors, and PBS, was pre-incubated at 37° C. for 3 min, and then added the substrate (i.e., the test compounds) to initiate the reaction. Samples were taken at 0, 1, 5, 10, 15, 20, 30 and 60 min from the start of the reaction, and an appropriate terminator was added to terminate the reaction. Sample treatment (n=3): appropriate samples were added respectively, vortexed and centrifuged at high speed. The supernatants were collected and detected for the substrate by HPLC-MS/MS. The peak area at the 0 mm was taken as 100%. The peak areas at other time points were converted to percentages of remaining. The natural logarithms of the percentages of remaining at each time point was plotted against the incubation time, and the slope (−k) was calculated by linear regression. Then, Clint (μL/min/mg) and half-life (T½, min.) of the compounds were calculated following the equation: Inherent clearance rate (Clint)=(k*Volume of incubation solution)/Mass of liver microsomes.

RORγt = biological target: T1, RORγt (Homo sapiens, UniProt P51449); test: In vitro luciferase reporter assay of RORγt inhibition (GAL4-RORγ-LBD in HEK293T); details: for Emax: HEK-293T, relative maximum inhibition rate relative to AZD-0284 at 10 μM; for IC50: IC50, RORγt luciferase reporter gene, HEK293T
T1 sequence (P51449 269-508 limits assumed): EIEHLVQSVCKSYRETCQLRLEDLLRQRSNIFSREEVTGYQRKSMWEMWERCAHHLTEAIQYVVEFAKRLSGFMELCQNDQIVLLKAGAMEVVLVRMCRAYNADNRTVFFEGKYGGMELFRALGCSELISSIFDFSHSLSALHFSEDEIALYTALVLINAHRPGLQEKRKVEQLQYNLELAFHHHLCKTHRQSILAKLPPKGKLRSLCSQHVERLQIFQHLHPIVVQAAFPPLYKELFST
Excerpt: The RORγ-LBD coding sequence was inserted into pBIND plasmid (Promega, E1581). The expression vector and a reporter vector (pGL4.35 carrying a stably integrated luciferase reporter gene driven by GAL4 promoter) were co-expressed in HEK293T host cells. When the inhibitor binds to the corresponding chimeric receptor, the chimeric receptor binds to the GAL4 binding site on the reporter gene carrier and inhibits reporter gene expression. The inhibition activity of the compounds on RORγ was determined according to the intensity of the chemiluminescence signal.
2.2 Cell Transfection • a) Balancing the Trans-IT transfection reagent at room temperature; • b) Adding 20 μl of the transfection reagent and 600 μl of Opti-MEM™ medium without contacting the tube wall, mixing uniformly through blowing and pipetting by a pipette gun, and allowing to stand at room temperature for 5 minutes; • c) Adding 10 μg of the plasmid to the transfection reagent (see Step 2.2.b), and allowing to stand at room temperature for 20 minutes; • Plasmids: 5 μg of pBIND-RORγ and 5 μg of pGL4.35 plasmids were respectively added therein; • d) Adding the mixed DNA transfection reagent to a 100 mm cell culture dish (see Step 2.1); • e) Placing the dish in an incubator at 37° C. and 5% CO2 for 5 h. […] Calculation of % Inhibition
[formula] • RLUcmpd: fluorescence value of test compounds • RLUpositive: average value of positive control • RLUvehicle: average value of negative control
IC50s of the compounds were calculated by fitting the % Inhibition and the logarithm values of the compound concentration using Graphad 8.0.

[2] = tested on: Th17 cells differentiation and secretion of IL-17; test: Inhibition of Th17 differentiation in human PBMC (IL-17 ELISA); format: cell-based; details: for Emax: Homo sapiens, PBMC, maximum inhibition rate, maximum concentration 3 μM; for IC50: IL-17 secretion, human PBMC, 48 hours
Experimental: Test procedure: the PBMC cells were first thawed and plated, and then stimulated with the stimulating factors (anti-hCD28: 5 μg/mL; rhTGF-β1: 5 ng/mL; rhIL-6: 20 ng/mL; rhIL-23: 10 ng/mL) to differentiate to Th17, while different concentrations of compounds were added, with the maximum concentration starting from 3 μM. After 48 hours, the supernatant was collected for IL-17 ELISA detection. The inhibition rates of the compounds to inhibit the secretion of IL-17 by Th17 cells were determined, as compared with the vehicle group, and the IC50 values were fitted with Graphad8.0.

[3] = Pharmacokinetic (PK) assay in mice; format: in vivo, C57BL/6 mice; details: for AUC(0-t) / Cmax / half-life / Vd / bioavailability: C57BL/6, mouse, plasma; for Vd: read-out: Vss; for bioavailability: Po 5 mg/kg vs IV 1 mg/kg
Experimental: The PK of each compound was determined as follows: 6 C57BL/6 mice (obtained from Shanghai Lingchang Biotechnology Co., Ltd.) were divided into two groups with 3 in each group. One group was administered intravenously at a dose of 1 mg/kg in the vehicle of 5% DMSO/95% (20% Captisol); the other group was administered by oral gavage at a dose of 5 mg/kg in the vehicle of 0.5% CMC-Na/0.5% Tween 80. Blood samples were collected from saphenous vein of lower leg in each group at 0, 0.083, 0.25, 0.5, 1, 2, 4, 6, 8 and 24 h after administration. Approximately 40 μL of the blood samples were collected into anticoagulant tubes containing EDTA-K2 Immediately after collection, the tubes were inverted at least 5 times to ensure uniform mixing, and then placed on ice. The blood samples collected at each time point were centrifuged at 4° C., 8000 rpm for 5 minutes to obtain plasma. Another 1.5 mL centrifuge tube was marked with the compound name, animal number, and time point, and the plasma was transferred to this tube. The plasma was stored at −80° C. until analysis.
Compound concentrations in the plasma were determined by UPLC-MS/MS method, and the pharmacokinetic parameters were calculated from the obtained data by Phoenix WinNolin 6.4 pharmacokinetic software.

[4] = Metabolic stability in mouse liver microsomes; format: in vitro ADME, CD-1 mice; details: for half-life: CD-1, 0.5 mg protein/mL; for microsomal CLint: CD-1, read-out: CLint(mic)
Excerpt: as §1

half-life [1] [h] | Remaining % (T = 60 min) [1] [%] | microsomal CLint [1] [µL/min/mg] | Emax (RORγt) [%] | IC50 (RORγt) [nM] | IC50 [2] [nM] | AUC(0-t) ([3]; IV, 1 mg/kg) [ng·h/mL] | Cmax ([3]; IV, 1 mg/kg) [ng/mL] | half-life ([3]; IV, 1 mg/kg) [h] | Vd ([3]; IV, 1 mg/kg) [L/kg] | bioavailability [3] [%] | AUC(0-t) ([3]; Po, 5 mg/kg) [ng·h/mL] | Cmax ([3]; Po, 5 mg/kg) [ng/mL] | half-life ([3]; Po, 5 mg/kg) [h] | CL_obs ([3]; IV, 1 mg/kg) [mL/min/kg] | half-life [4] [h] | microsomal CLint [4] [µL/min/mg] | Remaining % (T = 60 min) [4] [%] | SMILES | Emax [2] [%]
1.26 | 61.0 | 18.4 | 99.6 | 12.4 | 21.1 | 4870 | 703 | 39.9 | 4.02 | 83.5 | 20300 | 1080 | 37.6 | 1.23 | > 2.42 | < 9.6 | 79.7 | CCS(=O)(=O)c1ccc2c(c1)CCN(C(C)=O)C2C(=O)Nc1ccc(C(F)(C(F)(F)F)C(F)(F)F)cc1 (racemic) [Example 7, 2-Acetyl-6-(ethylsulfonyl)-N-(4-(perfluoropropan-2-yl)phenyl)-1,2,3,4-tetrahydroisoquinoline-1-carboxamide] | 72
> 2.42 | 70.2 | < 9.6 | 99.9 | 113 |  |  |  |  |  |  |  |  |  |  | 1.54 | 14.9 | 59.4 | CCS(=O)(=O)c1cc2c(s1)C(C(=O)Nc1ccc(C(O)(C(F)(F)F)C(F)(F)F)cc1)N(C(C)=O)CC2 (centres unmarked) [Example 6, 6-Acetyl-2-(ethylsulfonyl)-N-(4-(1,1,1,3,3,3-hexafluoro-2-hydroxypropan-2-yl)phenyl)-4,5,6,7-tetrahydrothieno[2,3-c]pyridine-7-carboxamide] | 

Continued, compound first:

SMILES | half-life [1] [h] | Remaining % (T = 60 min) [1] [%] | microsomal CLint [1] [µL/min/mg] | Emax (RORγt) [%] | IC50 (RORγt) [nM] | IC50 [2] [nM] | AUC(0-t) ([3]; IV, 1 mg/kg) [ng·h/mL] | Cmax ([3]; IV, 1 mg/kg) [ng/mL] | half-life ([3]; IV, 1 mg/kg) [h] | Vd ([3]; IV, 1 mg/kg) [L/kg] | bioavailability [3] [%] | AUC(0-t) ([3]; Po, 5 mg/kg) [ng·h/mL] | Cmax ([3]; Po, 5 mg/kg) [ng/mL] | half-life ([3]; Po, 5 mg/kg) [h] | CL_obs ([3]; IV, 1 mg/kg) [mL/min/kg] | half-life [4] [h] | microsomal CLint [4] [µL/min/mg] | Remaining % (T = 60 min) [4] [%] | Emax [2] [%]
CCS(=O)(=O)c1ccc2c(c1)CCN(C(C)=O)C2C(=O)Nc1ccc(C(O)(C(F)(F)F)C(F)(F)F)cc1 (racemic) [Example 1, 2-Acetyl-6-(ethylsulfonyl)-N-(4-(1,1,1,3,3,3-hexafluoro-2-hydroxypropan-2-yl)phenyl)-1,2,3,4-tetrahydroisoquinoline-1-carboxamide] | > 2.42 | 94.2 | < 9.6 | 102 | 19.1 | 51.4 | 1850 | 1390 | 5.09 | 2.71 | 84 | 9640 | 816 | 3.91 | 7.12 | > 2.42 | < 9.6 | 94.5 | 79
CC(=O)N1CCc2cc(S(C)(=O)=O)ccc2C1C(=O)Nc1ccc(C(O)(C(F)(F)F)C(F)(F)F)cc1 (centres unmarked) [Example 5, 2-Acetyl-N-(4-(1,1,1,3,3,3-hexafluoro-2-hydroxypropan-2-yl)phenyl)-6-(methylsulfonyl)-1,2,3,4-tetrahydroisoquinoline-1-carboxamide] | > 2.42 | 85.0 | < 9.6 |  |  |  | 1190 | 1890 | 4.89 | 3.34 | 213 | 12600 | 1370 | 4.33 | 13.8 | > 2.42 | < 9.6 | 86.6 | 
CCS(=O)(=O)c1ccc2c(c1)CCN(C(C)=O)C2C(=O)Nc1ccc(C(O)(C(F)(F)F)C(F)(F)F)cc1 (single isomer, unassigned) [Example 2, (R)-2-acetyl-6-(ethylsulfonyl)-N-(4-(1,1,1,3,3,3-hexafluoro-2-hydroxypropan-2-yl)phenyl)-1,2,3,4-tetrahydroisoquinoline-1-carboxamide or (S)-2-acetyl-6-(ethylsulfonyl)-N-(4-(1,1,1,3,3,3-hexafluoro-2-hydroxypropan-2-yl)phenyl)-1,2,3,4-tetrahydroisoquinoline-1-carboxamide] | > 2.42 | 82.2 | < 9.6 | 100 | 8 | 22.7 | 1300 | 2310 | 1.78 | 1.06 | 82.1 | 5330 | 553 | 3.31 | 12.8 | > 2.42 | < 9.6 | 102.3 | 78.3
